Data: ChEMBL document CHEMBL5579800, “Further structural optimization and SAR study of sungsanpin derivatives as cell-invasion inhibitors” (Bioorg Med Chem Lett, 2024)
Active and inactive are the calls of the source. No cut-off for these calls is given here. Where a SMILES comes first, the peptide text is derived from it.

Assays:
A549 [1] = assay: Cytotoxicity against human A549 cells assessed as cell viability upto 100 uM by CCK8 assay; format: toxicity, cell-based; details: a549, 100 µM
A549 [2] = assay: Inhibition of cell invasion in human A549 cells at 100 uM; format: functional, cell-based
A549 [3] = assay: Inhibition of cell invasion in human A549 cells at 100 uM by microscopy; format: functional, cell-based
A549 [4] = assay: Upregulation of TIMP-1 level in human A549 cells at 100 uM by Western blot analysis; format: functional, cell-based
A549 [5] = assay: Inhibition of cell invasion in human A549 cells; format: functional, cell-based; details: dose 25-100 µM
A549 [6] = assay: Upregulation of TIMP-1 mRNA level in human A549 cells at 100 uM by qPCR analysis; format: functional, cell-based
A549 [7] = assay: Upregulation of TIMP-2 level in human A549 cells at 100 uM by Western blot analysis; format: functional, cell-based
A549 [8] = assay: Upregulation of TIMP-2 mRNA level in human A549 cells at 100 uM by qPCR analysis; format: functional, cell-based
A549 [9] = assay: Downregulation of MMP-9 level in human A549 cells at 100 uM by Western blot analysis; format: functional, cell-based
[10] = Stability in human serum assessed as compound remaining measured after 24 hrs by HPLC analysis; format: ADME, cell-free; details: read-out: Stability
A549 [11] = assay: Inhibition of cell invasion in human A549 cells at 25 to 100 uM; format: functional, cell-based; details: dose 25-100 µM
A549 [12] = assay: Downregulation of MMP-2 level in human A549 cells at 100 uM by Western blot analysis; format: functional, cell-based
A549 [13] = assay: Inhibition of cell invasion in human A549 cells by microscopy; format: functional, cell-based; details: dose 25-100 µM
[14] = Stability in human serum assessed as half life by HPLC analysis; format: ADME, cell-free

## CC(C)C[C@@H]1NC(=O)[C@H](CCCCN)NC(=O)[C@H](Cc2ccccc2)NC(=O)[C@H](CO)NC(=O)[C@H](CC(=O)O)NC(=O)[C@H](CC(C)C)NC(=O)[C@H](Cc2c[nH]c3ccccc23)NC(=O)[C@H](CO)NC1=O (cyclo(DSFKLSWL))
A549 [1]
  Activity: Non-Toxic

## H-DSFGASWL-OH
A549 [1]
  Activity: Non-Toxic
A549 [2]
  inhibition: inactive

## H-DSFGLSWL-OH
A549 [1]
  Activity: Non-Toxic

## H-DSFGLSWA-OH
A549 [1]
  Activity: Non-Toxic
A549 [2]
  inhibition: inactive

## H-DSFALSWL-OH
A549 [3]
  inhibition: Active
A549 [4]
  Activity: Active
A549 [1]
  Activity: Non-Toxic
A549 [2]
  inhibition: Active
A549 [5]
  inhibition: Dose-Dependent Effect
A549 [6]
  Activity: Active
A549 [7]
  Activity: inactive
A549 [8]
  Activity: Active
A549 [9]
  Activity: Active
[10]
  remaining at 24 h: ~23%

## H-ASFGLSWL-OH
A549 [1]
  Activity: Non-Toxic
A549 [2]
  inhibition: inactive

## H-DSFLLSWL-OH
A549 [11]
  inhibition: inactive
A549 [1]
  Activity: Non-Toxic

## H-DSFKLSWL-OH
A549 [4]
  Activity: Active
A549 [1]
  Activity: Non-Toxic
A549 [5]
  inhibition: Dose-Dependent Effect
A549 [6]
  Activity: Active
A549 [12]
  Activity: Active
A549 [7]
  Activity: inactive
A549 [8]
  Activity: inactive

## H-DAFGLSWL-OH
A549 [1]
  Activity: Non-Toxic
A549 [2]
  inhibition: inactive

## CC(C)C[C@@H]1NC(=O)CNC(=O)[C@H](Cc2ccccc2)NC(=O)[C@H](CO)NC(=O)[C@H](CC(=O)O)NC(=O)[C@H](CC(C)C)NC(=O)[C@H](Cc2c[nH]c3ccccc23)NC(=O)[C@H](CO)NC1=O (cyclo(DSFGLSWL))
A549 [1]
  Activity: Non-Toxic

## H-DSFDLSWL-OH
A549 [1]
  Activity: Non-Toxic

## CC(C)C[C@@H]1NC(=O)[C@H](C)NC(=O)[C@H](Cc2ccccc2)NC(=O)[C@H](CO)NC(=O)[C@H](CC(=O)O)NC(=O)[C@H](CC(C)C)NC(=O)[C@H](Cc2c[nH]c3ccccc23)NC(=O)[C@H](CO)NC1=O (cyclo(ALSWLDSF))
A549 [4]
  Activity: Active
A549 [1]
  Activity: Non-Toxic
A549 [13]
  inhibition: Dose-Dependent Effect
A549 [5]
  inhibition: Dose-Dependent Effect
A549 [6]
  Activity: Active
A549 [7]
  Activity: inactive
A549 [8]
  Activity: Active
[14]
  half-life: > 1440 min
[10]
  remaining at 24 h: > 80%

## H-DSFGLSAL-OH
A549 [1]
  Activity: Non-Toxic
A549 [2]
  inhibition: inactive

## H-DSFGLAWL-OH
A549 [1]
  Activity: Non-Toxic

## H-DSAGLSWL-OH
A549 [1]
  Activity: Non-Toxic

## Ac-DSFGLSWL-NH2
A549 [1]
  Activity: Non-Toxic
A549 [2]
  inhibition: inactive

## H-DSFRLSWL-OH
A549 [1]
  Activity: Non-Toxic

## H-DSFVLSWL-OH
A549 [11]
  inhibition: Active
A549 [4]
  Activity: Active
A549 [1]
  Activity: Non-Toxic
A549 [6]
  Activity: Active
A549 [12]
  Activity: Active
A549 [7]
  Activity: inactive
A549 [8]
  Activity: inactive
